In patent US12220410B2, “Antitumor composition” (priority 2019, dated 2025):
Where two headings read alike, the source gives them in different places.

Legend:
[1] = tested on: human follicular lymphoma cell line DOHH-2; test: In vitro cell growth inhibition test (CellTiter-Fluor), DOHH-2; type: cell-based; settings: DOHH-2
[2] = tested on: human diffuse large B-cell lymphoma (DLBCL) cell line OCI-Ly7; test: In vitro cell growth inhibition test, OCI-Ly7 (cell viability, combination index); type: cell-based; settings: bendamustine 0 nM
[3] = tested on: human diffuse large B-cell lymphoma cell line OCI-Ly7; type: in vivo; settings: for Tumor growth delay / Tumor growth delay rate: relative tumor volume 1600%
[4] = tested on: human breast cancer cell line MDA-MB-453; test: In vivo antitumor effect test, MDA-MB-453 tumor, compound A and lapatinib (Example 37); design: species or system NOD-SCID mice; settings: for Tumor growth delay / Tumor growth delay rate: relative tumor volume 200%
Method: The tumor volume was calculated from tumor diameters by the following formula: (Long diameter×[Short diameter]^2×0.5). Using the calculated tumor volume value, the relative tumor volume (ratio of the tumor volume on the day of measurement to the baseline tumor volume on Day 1) was calculated. […] Further, the tumor growth delay rate (% TGD) was calculated according to the following formula: % TGD={(T−C)/C}×100, Where: • T: […] relative tumor volume of the control group to reach 1600% 6) Statistical Analysis
Compound A was suspended in a 1% hypromellose solution to prepare 20 mg/mL test substance suspensions (a suspension for preparing a single administration solution and a suspension for preparing a 100 mg/kg combined administration solution). The 20 mg/mL test substance suspensions were diluted with a 1% hypromellose solution to prepare 10 mg/mL (100 mg/kg administration solution), 6 mg/mL (suspension for preparing a 30 mg/kg combined administration solution), and 3 mg/mL (30 mg/kg administration solution) test substance suspensions. Lapatinib was suspended in a 1% hypromellose solution to prepare a 20 mg/mL suspension for preparing a 100 mg/kg lapatinib combined administration solution. The 20 mg/mL suspension was diluted with a 1% hypromellose solution to prepare a 10 mg/mL suspension for 100 mg/kg single administration. The administration solution of the combination group was prepared by mixing the 6 mg/mL compound A suspension and the 20 mg/mL lapatinib suspension at 1:1, or mixing the 20 mg/mL compound A suspension and the 20 mg/mL lapatinib suspension at 1:1.
MDA-MB-453 was obtained from ATCC. […] The collected cells were suspended in serum-free RPMI 1640 medium at 1.0×10^8 cells/mL.
5-week-old female NOD-SCID mice (NOD.CB17-Prkdcscid/J, produced by Charles River Japan Co., Ltd.) were used. The female NOD-SCID mice were bred in the same manner as in Example 36. The cell suspension was inoculated at 2×10^7 cells/body into the subcutaneous space of the right axillary region of the 6-week-old NOD-SCID mice, and the mice were grouped in the same manner as in Example 36 using the tumor volume as an index.
The administration was started on the next day of the grouping (Day 2), and compound A and lapatinib were orally administered once a day for 28 consecutive days. Each group (N=8) was treated as follows. • (1) Control (solvent control) group: 1% hypromellose solution • (2) Compound A (30 mg/kg) treated group: 30 mg/kg of compound A (oral administration once a day for 28 consecutive days) • (3) Compound A (100 mg/kg) treated group: 100 mg/kg of compound A (oral administration once a day for 28 consecutive days) • (4) Lapatinib (100 mg/kg) treated group: 100 mg/kg of lapatinib (oral administration once a day for 28 consecutive days) • (5) Combination group 1: 30 mg/kg of compound A (oral administration once a day for 28 consecutive days)+100 mg/kg of lapatinib (oral administration once a day for 28 consecutive days) • (6) Combination group 2: 100 mg/kg of compound A (oral administration once a day for 28 consecutive days)+100 mg/kg of lapatinib (oral administration once a day for 28 consecutive days)

[5] = tested on: human diffuse large B-cell lymphoma cell line OCI-Ly7; type: in vivo
[6] = tested on: human diffuse large B-cell lymphoma cell line OCI-Ly7; type: in vivo; remark: listed apart in the source
[7] = tested on: human acute myelogenous leukemia (AML) cell line KG-1; type: in vivo
[8] = tested on: human acute myelogenous leukemia (AML) cell line KG-1; type: in vivo; remark: listed apart in the source
[9] = tested on: human diffuse large B-cell lymphoma cell line OCI-Ly7; design: species or system SCID mice; settings: mouse, in vivo
[10] = tested on: human acute myelogenous leukemia (AML) cell line KG-1; type: in vivo; remark: listed apart in the source
[11] = compound A 10 mg/kg orally once a day for 14 days
[12] = compound A 30 mg/kg orally once a day for 14 days
[13] = compound A 100 mg/kg orally once a day for 14 days
[14] = compound A 30 mg/kg orally once a day for 28 days
[15] = compound A 100 mg/kg orally once a day for 28 days
[16] = compound A 30 mg/kg orally once a day for 21 days, relative tumor volume 600%

In the case of `CNc1ccc(Oc2ccc(NC(=O)c3ccc(C(F)(F)F)cc3)cn2)c(C)c1.Cl` [Compound A, N-{6-[2-methyl-4-(methylamino)phenoxy]pyridin-3-yl}-4-(trifluoromethyl)benzamide hydrochloride], the “FIC (fractional inhibitory concentration)” value ([1]; bendamustine fixed at 0 nM, compound A at its IC50) is reported as 1, the “FIC (fractional inhibitory concentration)” value ([1]; bendamustine fixed at 1250 nM, compound A at its IC50) is reported as 0.595 and the “FIC (fractional inhibitory concentration)” value ([1]; bendamustine fixed at 2500 nM, compound A at its IC50) is reported as 0.258. For the same compound, the “FIC (fractional inhibitory concentration)” value ([1]; bendamustine fixed at 5000 nM, compound A at its IC50) was 0.123, the “FIC (fractional inhibitory concentration)” value ([1]; compound A fixed at 0 nM, bendamustine at its IC50) was 0 and the “FIC (fractional inhibitory concentration)” value ([1]; compound A fixed at 39.1 nM, bendamustine at its IC50) was 0.103. The “FIC (fractional inhibitory concentration)” value ([1]; compound A fixed at 78.1 nM, bendamustine at its IC50) was 0.205, the “FIC (fractional inhibitory concentration)” value ([1]; compound A fixed at 156.3 nM, bendamustine at its IC50) was 0.410 and the “FIC (fractional inhibitory concentration)” value ([1]; compound A fixed at 312.5 nM, bendamustine at its IC50) was 0.820. The “Cell viability (ratio relative to the drug-free control)” value ([2]; compound A 0.25 nM, OCI-Ly7, 8000 cells/well) was 0.79, the “Cell viability (ratio relative to the drug-free control)” value ([2]; compound A 0.5 nM, OCI-Ly7) was 0.76 and the “Cell viability (ratio relative to the drug-free control)” value ([2]; compound A 1 nM, OCI-Ly7) was 0.61. The “Cell viability (ratio relative to the drug-free control)” value ([2]; compound A 2 nM, OCI-Ly7) was 0.50, the “effectiveness of monotherapy (tumor growth delay)” value (shortened to “effectiveness of monotherapy”) ([3]; 30 or 100 mg/kg of compound A, 50 mg/kg of cyclophosphamide) was “effective” and the “Median Time (time for relative tumor volume to reach 1600%)” value [3, 11] was 13.2 days. For the same compound, the Tumor growth delay [3, 11] was 0.5 days, the “Tumor growth delay rate” value [3, 11] was 3.5% and the “Median Time (time for relative tumor volume to reach 1600%)” value [3, 12] was 23.0 days. The Tumor growth delay [3, 12] was 10.3 days, the “Median Time (time for relative tumor volume to reach 1600%)” value [3, 13] was 31.5 days and the Tumor growth delay [3, 13] was 18.8 days. For the same compound, the “Tumor growth delay rate” value [3, 13] was 147.6%, the “effectiveness of monotherapy” value ([4]; 30 or 100 mg/kg of compound A, 100 mg/kg of lapatinib) was “effective” and the “Median Time (time for relative tumor volume to reach 200%)” value [4, 14] was 39.3 days. The Tumor growth delay [4, 14] was 16.5 days, the “Tumor growth delay rate” value [4, 14] was 72.4% and the “Median Time (time for relative tumor volume to reach 200%)” value [4, 15] was >99.0 days. The Tumor growth delay [4, 15] was >76.2 days, the “Tumor growth delay rate” value ([4]; compound A 100 mg/kg orally once a day for 28 days, hydrochloride, 100 mg/kg) was >334.2% and the “Tumor growth delay rate” value ([4]; compound A 100 mg/kg orally once a day for 28 days, listed as compound A, hydrochloride, 100 mg/kg) was > 334.2%. For the same compound, the “effectiveness of monotherapy” value ([5]; 30 mg/kg of compound A, 15 mg/kg of bendamustine) was “effective”, the “Median Time (time for relative tumor volume to reach 1600%)” value [5, 12] was 23.9 days and the Tumor growth delay ([5]; compound A 30 mg/kg orally once a day for 14 days, relative tumor volume 1600%) was 8.4 days. The “effectiveness of monotherapy” value ([6]; 30 mg/kg of compound A, 10 mg/kg of rituximab) was “effective”, the “Median Time (time for relative tumor volume to reach 600%)” value ([6]; compound A 30 mg/kg orally once a day for 21 days) was 28.4 days and the Tumor growth delay [6, 16] was 12.1 days. For the same compound, the “Tumor growth delay rate” value [6, 16] was 73.9%, the “antitumor effect on KG-1 tumor (monotherapy)” value ([7]; compound A 30 mg/kg, decitabine 1 mg/kg) was “antitumor effect” and the “T/C (ratio of relative tumor volume of treated group to control group)” value ([7]; compound A monotherapy 30 mg/kg orally, daily, 21 days, Day 23) was 45.2%. For the same compound, the “antitumor effect on KG-1 tumor (monotherapy)” value ([8]; compound A 30 mg/kg, cytarabine 50 mg/kg) was “antitumor effect”, the “T/C (ratio of relative tumor volume of treated group to control group)” value ([8]; compound A monotherapy 30 mg/kg orally, daily, 14 days, Day 16) was 52.0% and the “effectiveness (tumor growth delay)” value [9] was “effective”. The “Median Time (time for relative tumor volume to reach 800%)” value ([9]; po, 30 mg/kg) was 18.2 days, the Tumor growth delay ([9]; po, 30 mg/kg) was 8.3 days and the “Tumor growth delay rate” value ([9]; po, 30 mg/kg) was 83.8%. The “antitumor effect on KG-1 tumor” value ([10]; compound A 50 mg/kg, venetoclax 50 mg/kg + decitabine 1 mg/kg) was “antitumor effect” and the “T/C (ratio of relative tumor volume of treated group to control group)” value ([10]; compound A single administration 50 mg/kg orally, daily, 14 days, Day 16) was 29.2%.
